Tests used:
[1] = target: T1, MCR (McrABG core) in the MCR activation complex (Methanococcus maripaludis, UniProt A0A2L1CBB0+A0A2L1CBB3+A0A2L1CBG2); assay: cryo-EM structure; type: binding
T1 construct: gene mcrA; native complex pulled down from M. maripaludis by genomic N-terminal Twin-Strep-tag on McrC; McrA with native post-translational modifications; with Methyl-coenzyme M reductase operon protein C; Methanogenesis marker protein 7; Methanogenesis marker protein 17; Methanogenesis marker protein 3; Methyl-coenzyme M reductase system component A2; DUF2098 domain-containing protein
T1 sequence (A0A2L1CBB3 entry or part of it): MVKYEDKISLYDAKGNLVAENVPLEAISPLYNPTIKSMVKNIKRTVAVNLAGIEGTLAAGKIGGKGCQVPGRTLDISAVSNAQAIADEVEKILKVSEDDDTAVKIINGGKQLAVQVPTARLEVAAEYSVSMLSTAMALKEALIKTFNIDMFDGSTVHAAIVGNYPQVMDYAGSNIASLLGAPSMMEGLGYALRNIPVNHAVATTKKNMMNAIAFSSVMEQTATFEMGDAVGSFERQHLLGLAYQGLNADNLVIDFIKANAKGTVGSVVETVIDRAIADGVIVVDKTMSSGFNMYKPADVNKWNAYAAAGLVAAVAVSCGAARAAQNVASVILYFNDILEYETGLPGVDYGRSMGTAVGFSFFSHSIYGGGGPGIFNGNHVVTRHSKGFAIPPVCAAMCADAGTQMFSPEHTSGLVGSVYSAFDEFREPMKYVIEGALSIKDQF
T1 sequence (A0A2L1CBB0 entry or part of it): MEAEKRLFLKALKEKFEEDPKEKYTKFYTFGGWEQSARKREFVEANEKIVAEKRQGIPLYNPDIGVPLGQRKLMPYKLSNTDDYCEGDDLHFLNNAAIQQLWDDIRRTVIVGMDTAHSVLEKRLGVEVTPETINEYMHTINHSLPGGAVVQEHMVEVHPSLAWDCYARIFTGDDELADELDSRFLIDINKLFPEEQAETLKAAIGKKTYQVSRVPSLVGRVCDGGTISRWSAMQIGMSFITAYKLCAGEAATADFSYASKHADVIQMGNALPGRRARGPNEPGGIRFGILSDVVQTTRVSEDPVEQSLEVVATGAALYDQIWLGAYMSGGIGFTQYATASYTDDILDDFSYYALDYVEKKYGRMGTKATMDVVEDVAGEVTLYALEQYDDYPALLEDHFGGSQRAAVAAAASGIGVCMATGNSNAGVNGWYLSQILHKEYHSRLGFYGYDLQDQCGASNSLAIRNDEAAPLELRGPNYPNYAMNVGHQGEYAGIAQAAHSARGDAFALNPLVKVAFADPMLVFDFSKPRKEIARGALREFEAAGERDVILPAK
T1 sequence (A0A2L1CBG2 entry or part of it): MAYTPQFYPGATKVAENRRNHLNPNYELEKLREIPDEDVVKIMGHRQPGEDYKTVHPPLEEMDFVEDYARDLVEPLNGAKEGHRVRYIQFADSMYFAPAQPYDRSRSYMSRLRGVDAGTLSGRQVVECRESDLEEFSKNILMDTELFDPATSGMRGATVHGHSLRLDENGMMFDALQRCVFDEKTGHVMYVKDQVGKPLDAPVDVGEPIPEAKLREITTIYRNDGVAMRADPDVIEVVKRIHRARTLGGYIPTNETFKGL
T1 sequence (G0H3B1 entry or part of it, further chain): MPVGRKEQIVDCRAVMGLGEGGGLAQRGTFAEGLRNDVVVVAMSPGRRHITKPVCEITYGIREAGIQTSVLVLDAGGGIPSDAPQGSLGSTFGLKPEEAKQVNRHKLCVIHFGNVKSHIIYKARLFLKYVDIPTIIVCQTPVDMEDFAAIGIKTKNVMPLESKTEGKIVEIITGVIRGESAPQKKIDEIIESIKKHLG

A2 component [2] = target: T2, A2 component (Methanococcus maripaludis, UniProt A0A2L1C9A1); assay: mass photometry (stabilisation of the complex); type: binding; details: 5 mM AMP-PNP, 20 mM Ti(III) citrate; indirect, through assembly of A2 with MCR
T2 construct: gene opuCA; with Methyl-coenzyme M reductase subunit alpha; Methyl-coenzyme M reductase subunit beta; Methyl-coenzyme M reductase subunit gamma; Methyl-coenzyme M reductase operon protein C; Methanogenesis marker protein 7; Methanogenesis marker protein 17; Methanogenesis marker protein 3; DUF2098 domain-containing protein

A2 component [3] = target: T2, A2 component; assay: cryo-EM structure; type: binding; details: two ATP with Mg ions, pre-hydrolytic state; sample incubated with 5 mM ATP
[4] = target: methyl-coenzyme M reductase (MCR) core (Methanococcus maripaludis (endogenous in M. maripaludis JJ Δupt)) (UniProt Q6LWZ9); assay: cryo-EM structure; single-particle analysis of the Strep-Tactin-purified MCR activation complex (1.2 mg/ml), vitrified anaerobically 'as isolated' (maps with A2 at 2.5 Å and without A2 at 2.7 Å) and after 30 min with 5 mM ATP and the CH4 reaction components except Ti(III) citrate (2.1 Å, locally 1.8 Å)

For `C[C@@H](OP(=O)(O)O)[C@H](NC(=O)CCCCCCS)C(=O)O` [CoB–SH], which cryo-EM structure ([1]; distal active site) is on record?
The cryo-EM structure was “the phosphate moiety of CoB–SH was kept in place by the positively charged McrA residues”.

With `C[C@@H](OP(=O)(O)O)[C@H](NC(=O)CCCCCCSSCCS(=O)(=O)O)C(=O)O` [CoMS–SCoB] as the molecule, how does the cryo-EM structure ([1]; proximal active site, next to F430, sample incubated with ATP) read?
The cryo-EM structure was “In the proximal active site, we found the CoMS–SCoB heterodisulfide next to F430”.

With `Nc1ncnc2c1ncn2[C@@H]1O[C@H](COP(=O)(O)OP(=O)(O)NP(=O)(O)O)[C@@H](O)[C@H]1O` [AMP-PNP] as the molecule, how does the “mass photometry (stabilisation of the complex)” value (A2 component [2]) read?
The value was “A similar effect was observed when AMP-PNP, a non-hydrolysable ATP analogue, was used”.

Which cryo-EM structure (A2 component [3]) does the source give for `Nc1ncnc2c1ncn2[C@@H]1O[C@H](COP(=O)(O)OP(=O)(O)OP(=O)(O)O)[C@@H](O)[C@H]1O` [ATP] here?
The cryo-EM structure was “Our structure revealed two ATP molecules and their coordinating Mg ions”.

B1: A2 component (natural protein)
chain: MLLLEVKNVSKSYGDTEVLKNVSFELNEGDVMGVLGRSGAGKSVLLHMLRGMEGYEPTSGQIIYHVAYCPHCENVEAPSQVGKKCECETEYVAKSVDFWNNNEITYALKKKIAIMLQRTFALYGEKTVAENIMEALTAAGYEGKDATEWALNLIKMVKLEHRVAHISRDLSGGEKQRVVLARQIAKNPVIFLADEPTGTLDPKTAKFVHNALTEAVIKHNIAMVITSHWPEVIEELCQKAIWLDKGEMRLVGESKHVVEEFMKTVTSMKEFEKVEVKDELLKLENVEKRYVSVDRGIVKAVDGIDVSINEKEIFGLVGVSGAGKTTLSKIIAAVIPPSKGNYEFRLADEWVDMTKVGPLYRGRAKRYIGMLFQEYSLYPHRTILYNLTESIGLEMPGEFAKMKAEHTLVSVGFTEEEAENMLEKHPSELSVGEKHRVALAQVLIREPHLILLDEPTGTMDPITRNQVAESIQKSRSELDQTYVIVSHDMDFVLNVCDRAALVRGGKIIKTGKPDEIVKILSEEEKDEMIGH
B1 was tested. Which occupancy of the A2 component, sample preincubated with 5 mM ATP (% of the particles) [4] did it give?
Its occupancy of the A2 component, sample preincubated with 5 mM ATP (% of the particles) is 92.

What about the percent of particles with the A2 component, sample 'as isolated' (% of particles) [4] of the same molecule?
The percent of particles with the A2 component, sample 'as isolated' (% of particles) was 58.
